According to patent US20230227427A1, “IL-17A MODULATORS” (SANOFI, priority 2010, published 2023):

Molecular target: T1, human recombinant IL-17A (Homo sapiens, UniProt Q16552)
T1 construct: purchased R&D Systems 7955-IL/CF
T1 sequence (Q16552 24-155): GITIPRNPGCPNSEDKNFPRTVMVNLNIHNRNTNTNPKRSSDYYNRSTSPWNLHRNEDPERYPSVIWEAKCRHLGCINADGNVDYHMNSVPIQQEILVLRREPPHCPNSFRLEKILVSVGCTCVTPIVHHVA
Test: IL-17A AlphaLISA assay (block binding of IL-17A to its receptor IL-17RA)
Conditions: compounds pre-incubated with the IL-17A for 24 h at room temperature; read-out: AlphaLISA pIC50 (converted)
Protocol: The ability of the compounds to block binding of IL-17A to its receptor, IL-17RA, was analysed in a competition assay using AlphaLISA technology (Perkin Elmer). The assay is a bead based AlphaLISA where the IL-17RA is captured on the acceptor bead via an Fc tag and IL-17A is captured on the streptavidin donor bead via a biotinylated anti-IL17A antibody.
Assay buffer was prepared by adding 0.05% Tween-20 (v/v) and 0.1% BSA to Phosphate Buffered Saline (PBS). The assay was carried out in 384-well white low volume plates (Corning 4512). 10 µL of a 7.5 nM stock of human recombinant IL-17A (R&D Systems 7955-IL/CF) diluted in assay buffer was dispensed into the assay plate and compounds or DMSO vehicle control were added in a volume of 75 nL using a D300 dispenser (Hewlett Packard). The compounds were pre-incubated with the IL-17A for 24 h at room temperature (or for 30 min, where indicated by * in Table A below) prior to addition of 5 μL of a 5 nM stock of human recombinant IL-17RA/Fc chimera (R&D Systems 177-IR-100) diluted in assay buffer. The IL-17A was incubated with the receptor for a further 90 minutes at room temperature before addition of 5 μL of a mixture of anti-human Fc IgG acceptor beads (75 μg/mL, Perkin Elmer AL103C) and anti-IL-17A biotin conjugated antibody (5 nM, Enzo Life Sciences, ENZ-ABS278-0100) in assay buffer. After a further 30 min incubation at room temperature, 5 μL of streptavidin donor beads ([…], Perkin Elmer 6760002S) were added and the plate was incubated for 3 h in the dark.
The luminescence signal was measured using an Enspire plate reader (Perkin Elmer) with excitation at 680 nm and emission at 615 nm. Data were analysed using GraphPad Prism and fitted to a 4-parameter logistic equation. The IC50 values were calculated using the DMSO vehicle as the negative control and a high concentration (6 μM) of a reference IL-17A inhibitor as the positive control.
Activity of the Example compounds is reported as a PIC50 value in Table A.

| SMILES | IC50 |
| --- | --- |
| COc1c[n+]([O-])ccc1-c1ccc(NC(=O)[C@@H](NC(=O)c2ccnn2C)C(c2ccccc2)c2ccccc2)cc1 [Example 25, (S)-3-methoxy-4-(4-(2-(1-methyl-1H-pyrazole-5-carboxamido)-3,3-diphenylpropanamido)phenyl)pyridine 1-oxide] | 5.01 nM |
| Cc1c[n+]([O-])cc(C)c1-c1ccc(NC(=O)[C@@H](NC(=O)c2ccnn2C)C(c2ccccc2)c2ccccc2)cc1 [Example 26, (S)-3,5-dimethyl-4-(4-(2-(1-methyl-1H-pyrazole-5-carboxamido)-3,3-diphenylpropanamido)phenyl)pyridine 1-oxide] | 7.94 nM |
| COc1c[n+]([O-])cc(OC)c1-c1ccc(NC(=O)[C@@H](NC(=O)c2ccnn2C)C(c2ccccc2)c2ccccc2)cc1 [Example 27, (S)-3,5-dimethoxy-4-(4-(2-(1-methyl-1H-pyrazole-5-carboxamido)-3,3-diphenylpropanamido)phenyl)pyridine 1-oxide] | 5.01 nM |
| Cc1nn(Cc2ccccc2)c(C)c1-c1ccc(NC(=O)[C@@H](NC(=O)c2ccnn2C)C(c2ccccc2)c2ccccc2)cc1 [Example 31, (S)—N-(1-((4-(1-benzyl-3,5-dimethyl-1H-pyrazol-4-yl)phenyl)amino)-1-oxo-3,3-diphenylpropan-2-yl)-1-methyl-1H-pyrazole-5-carboxamide] | 631 nM |
| Cc1n[nH]c(C)c1-c1ccc(NC(=O)[C@@H](NC(=O)c2ccnn2C)C(c2ccccc2)c2ccccc2)cc1 [Example 32, (S)—N-(1-((4-(3,5-dimethyl-1H-pyrazol-4-yl)phenyl)amino)-1-oxo-3,3-diphenylpropan-2-yl)-1-methyl-1H-pyrazole-5-carboxamide] | 12.6 nM |
| Cc1c(-c2ccc(NC(=O)[C@@H](NC(=O)c3ccnn3C)[C@H]3CC[C@H](C)CC3)cc2)ccc(=O)n1C [Example 33, N—((S)-2-((4-(1,2-dimethyl-6-oxo-1,6-dihydropyridin-3-yl)phenyl)amino)-1-((1r,4S)-4-methylcyclohexyl)-2-oxoethyl)-1-methyl-1H-pyrazole-5-carboxamide] | 79.4 nM |
| CCn1nccc1C(=O)N[C@H](C(=O)Nc1ccc(-c2ccc(=O)[nH]n2)c(F)c1)C(c1ccccc1)c1ccccc1 [Example 34, (S)-1-ethyl-N-(1-((3-fluoro-4-(6-oxo-1,6-dihydropyridazin-3-yl)phenyl)amino)-1-oxo-3,3-diphenylpropan-2-yl)-1H-pyrazole-5-carboxamide] | 200 nM |
| Cc1ncc(C)c(-c2ccc(NC(=O)[C@@H](NC(=O)c3ccnn3C)C(c3ccccc3)c3ccccc3)cc2)n1 [Example 37, (S)—N-(1-((4-(2,5-dimethylpyrimidin-4-yl)phenyl)amino)-1-oxo-3,3-diphenylpropan-2-yl)-1-methyl-1H-pyrazole-5-carboxamide] | 39.8 nM |
| Cn1nccc1C(=O)N[C@H](C(=O)Nc1ccc(-c2cnc3ccccn23)cc1)C(c1ccccc1)c1ccccc1 [Example 39, (S)—N-(1-((4-(imidazo[1,2-a]pyridin-3-yl)phenyl)amino)-1-oxo-3,3-diphenylpropan-2-yl)-1-methyl-1H-pyrazole-5-carboxamide] | 200 nM |
| Cn1nccc1C(=O)N[C@H](C(=O)Nc1ccc(-c2ncnc3c2CCN3)cc1)C(c1ccccc1)c1ccccc1 [Example 40, (S)—N-(1-((4-(6,7-dihydro-5H-pyrrolo[2,3-d]pyrimidin-4-yl)phenyl)amino)-1-oxo-3,3-diphenylpropan-2-yl)-1-methyl-1H-pyrazole-5-carboxamide] | 63.1 nM |
| Cn1nccc1C(=O)N[C@H](C(=O)Nc1ccc(-c2cnc3ncccn23)cc1)C(c1ccccc1)c1ccccc1 [Example 41, (S)—N-(1-((4-(imidazo[1,2-a]pyrimidin-3-yl)phenyl)amino)-1-oxo-3,3-diphenylpropan-2-yl)-1-methyl-1H-pyrazole-5-carboxamide] | 200 nM |
| Cn1nccc1C(=O)N[C@H](C(=O)Nc1ccc(-c2ccnc3c2CCC3)cc1)C(c1ccccc1)c1ccccc1 [Example 44, (S)—N-(1-((4-(6,7-dihydro-5H-cyclopenta[b]pyridin-4-yl)phenyl)amino)-1-oxo-3,3-diphenylpropan-2-yl)-1-methyl-1H-pyrazole-5-carboxamide] | 251 nM |

Results, then the molecule that gave them:

| IC50 | SMILES |
| --- | --- |
| 31.6 nM | COc1cnccc1-c1ccc(NC(=O)[C@@H](NC(=O)c2ccnn2C)C(c2ccccc2)c2ccccc2)cc1F [Example 24, (S)—N-(1-((3-fluoro-4-(3-methoxypyridin-4-yl)phenyl)amino)-1-oxo-3,3-diphenylpropan-2-yl)-1-methyl-1H-pyrazole-5-carboxamide] |
| 7.94 nM | COc1c[n+]([O-])cc(F)c1-c1ccc(NC(=O)[C@@H](NC(=O)c2ccnn2C)C(c2ccccc2)c2ccccc2)cc1 [Example 28, (S)-3-fluoro-5-methoxy-4-(4-(2-(1-methyl-1H-pyrazole-5-carboxamido)-3,3-diphenylpropanamido)phenyl)pyridine 1-oxide] |
| 20 nM | Cc1c(-c2c(F)cc(NC(=O)[C@@H](NC(=O)c3ccnn3C)C(c3ccccc3)c3ccccc3)cc2F)ccc(=O)n1C [Example 29, (S)—N-(1-((4-(1,2-dimethyl-6-oxo-1,6-dihydropyridin-3-yl)-3,5-difluorophenyl)amino)-1-oxo-3,3-diphenylpropan-2-yl)-1-methyl-1H-pyrazole-5-carboxamide] |
| 39.8 nM | COc1cnccc1-c1c(F)cc(NC(=O)[C@@H](NC(=O)c2ccnn2C)C(c2ccccc2)c2ccccc2)cc1F [Example 30, (S)—N-(1-((3,5-difluoro-4-(3-methoxypyridin-4-yl)phenyl)amino)-1-oxo-3,3-diphenylpropan-2-yl)-1-methyl-1H-pyrazole-5-carboxamide] |
| 25.1 nM | Cn1nccc1C(=O)N[C@H](C(=O)Nc1ccc(-c2cc[nH]c(=O)c2)c(F)c1)C(c1ccccc1)c1ccccc1 [Example 35, (S)—N-(1-((3-fluoro-4-(2-oxo-1,2-dihydropyridin-4-yl)phenyl)amino)-1-oxo-3,3-diphenylpropan-2-yl)-1-methyl-1H-pyrazole-5-carboxamide] |
| 79.4 nM | Cn1nccc1C(=O)N[C@H](C(=O)Nc1ccc(-c2ccncc2F)cc1)C(c1ccccc1)c1ccccc1 [Example 36, (S)—N-(1-((4-(3-fluoropyridin-4-yl)phenyl)amino)-1-oxo-3,3-diphenylpropan-2-yl)-1-methyl-1H-pyrazole-5-carboxamide] |
| 100 nM | Cc1cc(-c2ccc(NC(=O)[C@@H](NC(=O)c3ccnn3C)C(c3ccccc3)c3ccccc3)cc2)c(C)cn1 [Example 38, (S)—N-(1-((4-(2,5-dimethylpyridin-4-yl)phenyl)amino)-1-oxo-3,3-diphenylpropan-2-yl)-1-methyl-1H-pyrazole-5-carboxamide] |
| 50.1 nM | Cn1nccc1C(=O)N[C@H](C(=O)Nc1ccc(-c2ccncc2CO)cc1)C(c1ccccc1)c1ccccc1 [Example 42, (S)—N-(1-((4-(3-(hydroxymethyl)pyridin-4-yl)phenyl)amino)-1-oxo-3,3-diphenylpropan-2-yl)-1-methyl-1H-pyrazole-5-carboxamide] |
| 126 nM | Cn1nccc1C(=O)N[C@H](C(=O)Nc1ccc(-c2ccncc2C#N)cc1)C(c1ccccc1)c1ccccc1 [Example 43, (S)—N-(1-((4-(3-cyanopyridin-4-yl)phenyl)amino)-1-oxo-3,3-diphenylpropan-2-yl)-1-methyl-1H-pyrazole-5-carboxamide] |
| 100 nM | Cc1cc(NC(=O)[C@@H](NC(=O)c2ccnn2C)C(c2ccccc2)c2ccccc2)ccc1-c1ccncc1 [Example 45, (S)-1-methyl-N-(1-((3-methyl-4-(pyridin-4-yl)phenyl)amino)-1-oxo-3,3-diphenylpropan-2-yl)-1H-pyrazole-5-carboxamide] |
| 100 nM | COc1cnccc1-c1ccc(NC(=O)[C@@H](NC(=O)c2ccnn2C(F)F)C(c2ccccc2)c2ccccc2)cc1 [Example 46, (S)-1-(difluoromethyl)-N-(1-((4-(3-methoxypyridin-4-yl)phenyl)amino)-1-oxo-3,3-diphenylpropan-2-yl)-1H-pyrazole-5-carboxamide] |
| 25.1 nM | COc1cnccc1-c1ccc(NC(=O)[C@@H](NC(=O)c2ccnn2C)C(c2ccccc2)c2ccccc2)cc1OC [Example 47, (S)—N-(1-((3-methoxy-4-(3-methoxypyridin-4-yl)phenyl)amino)-1-oxo-3,3-diphenylpropan-2-yl)-1-methyl-1H-pyrazole-5-carboxamide] |
